Experimental data as given in ChEMBL document CHEMBL4020706, “Design, synthesis and biological evaluation of novel hydroxamates and 2-aminobenzamides as potent histone deacetylase inhibitors and antitumor agents” (Eur J Med Chem, 2017).

Legend:
[1] = system: HepG2; test: Antiproliferative activity against human HepG2 cells after 72 hrs by CCK-8 reagent based assay; assay type: functional, cell-based; settings: HepG2, 72 h
[2] = system: A549; test: Antiproliferative activity against human A549 cells after 72 hrs by CCK-8 reagent based assay; assay type: functional, cell-based; settings: A549, 72 h
[3] = system: MGC-803; test: Antiproliferative activity against human MGC803 cells after 72 hrs by CCK-8 reagent based assay; assay type: functional, cell-based; settings: MGC-803, 72 h
[4] = system: HCT-116; test: Antiproliferative activity against human HCT116 cells after 72 hrs by CCK-8 reagent based assay; assay type: functional, cell-based; settings: HCT-116, 72 h
[5] = system: A549; test: Cell cycle arrest in human A549 cells assessed as accumulation at G2/M phase after 48 hrs by propidium iodide staining-based flow cytometry; assay type: functional
[6] = system: A549; test: Induction of apoptosis in human A549 cells after 48 hrs by Alexa Fluor 488 Annexin/propidium iodide staining-based flow cytometry; assay type: functional, cell-based
[7] = system: A549; test: Induction of apoptosis in human A549 cells assessed as necrotic cells at 8 umol/L after 48 hrs by Alexa Fluor 488 Annexin/propidium iodide staining-based flow cytometry (reference value: 0.87%); assay type: functional
[8] = system: A549; test: Cell cycle arrest in human A549 cells assessed as accumulation at G0/G1 phase at 16 umol/L after 48 hrs by propidium iodide staining-based flow cytometry (reference value: 75.77%); assay type: functional
[9] = system: A549; test: Induction of apoptosis in human A549 cells assessed as early apoptotic cells at 4 umol/L after 48 hrs by Alexa Fluor 488 Annexin/propidium iodide staining-based flow cytometry (reference value: 3.41%); assay type: functional
[10] = system: A549; test: Induction of apoptosis in human A549 cells assessed as viable cells at 8 umol/L after 48 hrs by Alexa Fluor 488 Annexin/propidium iodide staining-based flow cytometry (reference value: 92.79%); assay type: functional; settings: A549, 48 h, read-out: Activity
[11] = system: A549; test: Cell cycle arrest in human A549 cells assessed as accumulation at G2/M phase at 2 umol/L after 48 hrs by propidium iodide staining-based flow cytometry (reference value: 9.1%); assay type: functional; settings: at 2 µM
[12] = target: Histone deacetylase 1 (Homo sapiens, UniProt Q13547); test: Inhibition of human recombinant HDAC1 using Fluor de Lys as substrate by fluorometric assay
Chain of Histone deacetylase 1 (Q13547 whole entry): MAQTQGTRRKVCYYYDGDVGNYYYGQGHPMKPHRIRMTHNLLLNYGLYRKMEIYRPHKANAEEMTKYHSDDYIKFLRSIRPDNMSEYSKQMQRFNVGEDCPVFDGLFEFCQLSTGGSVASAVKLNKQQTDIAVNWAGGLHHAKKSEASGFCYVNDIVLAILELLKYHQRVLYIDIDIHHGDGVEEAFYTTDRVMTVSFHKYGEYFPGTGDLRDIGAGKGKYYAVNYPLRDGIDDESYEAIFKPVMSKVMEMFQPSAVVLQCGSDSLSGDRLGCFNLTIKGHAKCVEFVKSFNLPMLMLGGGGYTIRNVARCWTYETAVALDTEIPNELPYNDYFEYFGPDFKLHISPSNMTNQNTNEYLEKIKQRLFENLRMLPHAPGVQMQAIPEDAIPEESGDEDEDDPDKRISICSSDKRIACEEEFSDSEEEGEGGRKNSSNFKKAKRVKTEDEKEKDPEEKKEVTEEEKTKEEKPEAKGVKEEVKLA

[13] = system: A549; test: Induction of apoptosis in human A549 cells assessed as early apoptotic cells at 8 umol/L after 48 hrs by Alexa Fluor 488 Annexin/propidium iodide staining-based flow cytometry (reference value: 3.41%); assay type: functional
[14] = system: A549; test: Inhibition of colony formation in human A549 cells after 7 days by crystal violet staining based assay; assay type: functional, cell-based
[15] = target: Histone deacetylase 2 (Homo sapiens, UniProt Q92769); test: Inhibition of human recombinant HDAC2 using Fluor de Lys green as substrate by fluorometric assay
Chain of Histone deacetylase 2 (Q92769 whole entry): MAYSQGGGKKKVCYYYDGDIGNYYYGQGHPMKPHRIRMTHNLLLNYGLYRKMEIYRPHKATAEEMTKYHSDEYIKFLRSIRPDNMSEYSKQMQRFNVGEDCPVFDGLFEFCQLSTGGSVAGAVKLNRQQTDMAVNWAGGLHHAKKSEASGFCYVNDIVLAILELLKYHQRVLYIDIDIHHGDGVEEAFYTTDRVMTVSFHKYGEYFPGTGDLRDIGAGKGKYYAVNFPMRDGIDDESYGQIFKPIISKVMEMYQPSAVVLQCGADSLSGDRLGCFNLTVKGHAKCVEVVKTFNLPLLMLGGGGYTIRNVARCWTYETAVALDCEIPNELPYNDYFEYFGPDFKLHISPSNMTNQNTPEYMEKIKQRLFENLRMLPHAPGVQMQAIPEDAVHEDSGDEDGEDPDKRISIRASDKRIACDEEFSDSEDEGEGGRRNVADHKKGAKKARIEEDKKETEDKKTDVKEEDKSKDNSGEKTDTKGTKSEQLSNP

[16] = system: A549; test: Induction of apoptosis in human A549 cells assessed as late apoptotic cells at 4 umol/L after 48 hrs by Alexa Fluor 488 Annexin/propidium iodide staining-based flow cytometry (reference value: 2.93%); assay type: functional
[17] = system: A549; test: Cell cycle arrest in human A549 cells assessed as accumulation at S phase at 16 umol/L after 48 hrs by propidium iodide staining-based flow cytometry (reference value: 15.13%); assay type: functional
[18] = system: A549; test: Cell cycle arrest in human A549 cells assessed as accumulation at G2/M phase at 16 umol/L after 48 hrs by propidium iodide staining-based flow cytometry (reference value: 9.1%); assay type: functional; settings: at 16 µM
[19] = target: T1, Protein deacetylase HDAC6 (Homo sapiens, UniProt Q9UBN7); test: Inhibition of human recombinant HDAC6 using Fluor de Lys as substrate after 60 mins by fluorometric assay
T1 sequence (Q9UBN7 whole entry): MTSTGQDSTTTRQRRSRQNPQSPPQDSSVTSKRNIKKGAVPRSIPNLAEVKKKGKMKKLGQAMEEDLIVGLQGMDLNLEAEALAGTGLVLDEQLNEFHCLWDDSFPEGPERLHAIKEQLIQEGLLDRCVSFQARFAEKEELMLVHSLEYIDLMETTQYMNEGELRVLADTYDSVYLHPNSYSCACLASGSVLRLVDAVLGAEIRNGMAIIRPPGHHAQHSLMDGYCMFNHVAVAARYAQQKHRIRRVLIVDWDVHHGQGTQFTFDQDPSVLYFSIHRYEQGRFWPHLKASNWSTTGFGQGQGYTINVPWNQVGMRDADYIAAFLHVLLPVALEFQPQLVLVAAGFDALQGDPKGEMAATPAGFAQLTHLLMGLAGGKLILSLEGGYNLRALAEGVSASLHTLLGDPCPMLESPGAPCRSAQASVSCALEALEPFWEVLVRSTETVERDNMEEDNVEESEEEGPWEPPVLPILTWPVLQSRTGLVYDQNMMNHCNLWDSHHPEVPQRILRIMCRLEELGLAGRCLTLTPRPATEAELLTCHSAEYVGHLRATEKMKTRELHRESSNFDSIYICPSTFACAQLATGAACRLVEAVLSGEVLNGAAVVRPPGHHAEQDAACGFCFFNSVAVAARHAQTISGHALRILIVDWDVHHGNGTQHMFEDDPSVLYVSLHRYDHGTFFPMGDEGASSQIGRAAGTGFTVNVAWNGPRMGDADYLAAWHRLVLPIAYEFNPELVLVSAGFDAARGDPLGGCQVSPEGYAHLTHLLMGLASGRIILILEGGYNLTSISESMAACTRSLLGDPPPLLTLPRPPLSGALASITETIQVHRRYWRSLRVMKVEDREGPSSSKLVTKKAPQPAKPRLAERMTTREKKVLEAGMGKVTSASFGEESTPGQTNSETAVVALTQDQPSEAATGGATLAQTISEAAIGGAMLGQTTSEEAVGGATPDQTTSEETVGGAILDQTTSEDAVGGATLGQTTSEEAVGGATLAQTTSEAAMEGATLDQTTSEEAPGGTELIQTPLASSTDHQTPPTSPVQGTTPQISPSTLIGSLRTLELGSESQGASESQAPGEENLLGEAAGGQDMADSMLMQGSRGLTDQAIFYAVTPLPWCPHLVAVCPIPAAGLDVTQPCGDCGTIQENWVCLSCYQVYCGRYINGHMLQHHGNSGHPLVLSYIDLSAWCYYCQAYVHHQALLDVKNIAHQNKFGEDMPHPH

[20] = system: A549; test: Cell cycle arrest in human A549 cells assessed as accumulation at G0/G1 phase at 2 umol/L after 48 hrs by propidium iodide staining-based flow cytometry (reference value: 75.77%); assay type: functional
[21] = system: A549; test: Cell cycle arrest in human A549 cells assessed as accumulation at S phase at 2 umol/L after 48 hrs by propidium iodide staining-based flow cytometry (reference value: 15.13%); assay type: functional
[22] = system: A549; test: Induction of apoptosis in human A549 cells assessed as viable cells at 4 umol/L after 48 hrs by Alexa Fluor 488 Annexin/propidium iodide staining-based flow cytometry (reference value: 92.79%); assay type: functional; settings: A549, 48 h, read-out: Activity
[23] = system: A549; test: Induction of apoptosis in human A549 cells assessed as late apoptotic cells at 8 umol/L after 48 hrs by Alexa Fluor 488 Annexin/propidium iodide staining-based flow cytometry (reference value: 2.93%); assay type: functional
[24] = system: A549; test: Induction of apoptosis in human A549 cells assessed as necrotic cells at 4 umol/L after 48 hrs by Alexa Fluor 488 Annexin/propidium iodide staining-based flow cytometry (reference value: 0.87%); assay type: functional

Structure (SMILES)	IC50 [1]	IC50 [2]	IC50 [3]	IC50 [4]	further results
Nc1ccccc1NC(=O)/C=C/c1ccc(CN2CCc3ccccc32)cc1	> 32 µM	13.4 µM	> 32 µM	–	–
Nc1ccccc1NC(=O)/C=C/c1ccc(COc2ccccc2)cc1	> 32 µM	> 32 µM	> 32 µM	–	–
O=C(/C=C/c1ccc(CN2CCc3ccccc32)cc1)NO	14.9 µM	5.48 µM	–	–	–
Nc1ccccc1NC(=O)c1ccc(COc2ccc([N+](=O)[O-])cc2)cc1	> 32 µM	> 32 µM	> 32 µM	> 32 µM	–
Nc1ccccc1NC(=O)c1ccc(COc2ccc(Cl)cc2)cc1	> 32 µM	> 32 µM	> 32 µM	17.3 µM	–
CC(C)c1ccc(OCc2ccc(C(=O)Nc3ccccc3N)cc2)cc1	> 32 µM	7.46 µM	> 32 µM	4.57 µM	–
Nc1cnccc1NC(=O)/C=C/c1ccc(COc2ccccc2)cc1	> 32 µM	> 32 µM	> 32 µM	–	–
O=C(/C=C/c1ccc(COc2ccccc2)cc1)NO	8.4 µM	5.77 µM	–	–	–
Nc1ccccc1NC(=O)c1ccc(CN2CCc3cc(Br)ccc32)cc1	10.7 µM	–	7.39 µM	–	–
Nc1ccccc1NC(=O)c1ccc(COc2ccc(F)cc2)cc1	3.84 µM	5.37 µM	4.97 µM	3.86 µM	Activity [5]: Dose-dependent effect; Activity [6]: Dose-dependent effect; Activity [7]: 6.34%; Activity [8]: 54.03%; Activity [9]: 14.37%; viability at 8 µM [10]: 29.7%; Activity [11]: 8.97%; IC50 [12]: 1.27 µM; Activity [13]: 35.52%; inhibition [14]: Dose-dependent effect; IC50 [15]: 0.57 µM; Activity [16]: 10.93%; Activity [17]: 8.23%; Activity [18]: 37.74%; IC50 [19]: > 40 µM; Activity [20]: 84.93%; Activity [21]: 6.1%; viability at 4 µM [22]: 70.9%; Activity [23]: 28.88%; Activity [24]: 3.74%
Nc1cc(F)ccc1NC(=O)c1ccc(COc2ccccc2)cc1	7.02 µM	8.34 µM	6.02 µM	–	–
CCc1ccc(OCc2ccc(C(=O)Nc3ccccc3N)cc2)cc1	6.96 µM	6.42 µM	5.88 µM	4.83 µM	–
C/C(=N\O)c1ccc(OCc2ccc(C(=O)NO)cc2)cc1	7.77 µM	8.93 µM	–	–	–
O=C(NO)c1ccc(COc2ccccc2)cc1	29.6 µM	28 µM	–	–	–
Cc1ccc(OCc2ccc(C(=O)Nc3ccccc3N)cc2)cc1	6.59 µM	5.43 µM	6.53 µM	4.86 µM	–
Nc1ccccc1NC(=O)c1ccc(COc2ccc(Br)cc2)cc1	> 32 µM	24.4 µM	> 32 µM	> 32 µM	–
COc1ccc(OCc2ccc(C(=O)Nc3ccccc3N)cc2)cc1	4.2 µM	5.53 µM	3.48 µM	2.02 µM	inhibition [14]: Dose-dependent effect
CCCc1ccc(OCc2ccc(C(=O)Nc3ccccc3N)cc2)cc1	4.75 µM	5.21 µM	4.42 µM	3.23 µM	–
Nc1ccccc1NC(=O)/C=C/c1ccc(CN2CCc3ccccc3C2)cc1	13.5 µM	–	14.2 µM	–	–
Nc1ccccc1NC(=O)c1ccc(COc2ccccc2)cc1	6.7 µM	6.76 µM	5.67 µM	4.89 µM	–
Nc1ccc(F)cc1NC(=O)c1ccc(CNC(=O)/C=C/c2cccnc2)cc1	22.7 µM	11 µM	6.44 µM	2.28 µM	Activity [7]: 2.1%; Activity [8]: 85.67%; Activity [9]: 10.55%; viability at 8 µM [10]: 75.5%; Activity [11]: 9.84%; Activity [13]: 13.48%; Activity [16]: 6.27%; Activity [17]: 7.87%; Activity [18]: 6.46%; Activity [20]: 80.14%; Activity [21]: 10.02%; viability at 4 µM [22]: 81.6%; Activity [23]: 8.94%; Activity [24]: 1.52%
CC(=O)Nc1ccc(C(=O)Nc2ccccc2N)cc1 [TACEDINALINE]	18.5 µM	20.1 µM	11.6 µM	7.71 µM	Activity [7]: 1.8%; Activity [8]: 89.32%; Activity [9]: 6.96%; viability at 8 µM [10]: 85.6%; Activity [11]: 9.1%; Activity [13]: 7.82%; Activity [16]: 4.39%; Activity [17]: 4.66%; Activity [18]: 6.02%; Activity [20]: 81.59%; Activity [21]: 9.31%; viability at 4 µM [22]: 85.7%; Activity [23]: 4.76%; Activity [24]: 2.91%
